Consider three molecules from ChEMBL document CHEMBL1772989, “Non-peptide metabolites from the genus Bacillus” (J Nat Prod, 2011).

The subject of one test is Pseudomonas aeruginosa. Kind of test: Antibacterial activity against Pseudomonas aeruginosa ATCC 14210. It counts as functional.
The subject of another test is Staphylococcus aureus. Kind of test: Antibacterial activity against Staphylococcus aureus ATCC 10832. It counts as functional.

SMILES strings stand for the structures.

The term MIC denotes the lowest concentration found to suppress growth. Low readings indicate inhibition by little substance, high ones a need for much substance. With `CC(C)CCCCCCCC(=O)N[C@@H](CC(N)=O)C(=O)O` [LIPOAMIDE A], the MIC against Pseudomonas aeruginosa and against Staphylococcus aureus was greater than 100 µg/mL throughout.
As for `CC(C)CCCCCCCCC(=O)N[C@@H](CC(N)=O)C(=O)O` [LIPOAMIDE B], the MIC against Pseudomonas aeruginosa and in the test on Staphylococcus aureus was greater than 100 µg/mL in each case.
`CC(C)CCCCCCCCCC(=O)N[C@@H](CC(N)=O)C(=O)O` [LIPOAMIDE C]: the MIC in the test with Pseudomonas aeruginosa and against Staphylococcus aureus was greater than 100 µg/mL throughout.
